Target: T1, rhFVIIa (Homo sapiens, UniProt P08709)
T1 construct: Typically, Factor VII is cleaved between amino acid residues 152 and 153 to yield Factor VIIa
T1 sequence (P08709 61-212 limits assumed): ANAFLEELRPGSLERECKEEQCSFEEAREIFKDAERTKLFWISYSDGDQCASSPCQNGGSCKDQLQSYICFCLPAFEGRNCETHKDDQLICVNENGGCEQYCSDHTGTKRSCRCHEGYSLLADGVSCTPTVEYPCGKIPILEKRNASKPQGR
T1 sequence (P08709 213-466 limits assumed): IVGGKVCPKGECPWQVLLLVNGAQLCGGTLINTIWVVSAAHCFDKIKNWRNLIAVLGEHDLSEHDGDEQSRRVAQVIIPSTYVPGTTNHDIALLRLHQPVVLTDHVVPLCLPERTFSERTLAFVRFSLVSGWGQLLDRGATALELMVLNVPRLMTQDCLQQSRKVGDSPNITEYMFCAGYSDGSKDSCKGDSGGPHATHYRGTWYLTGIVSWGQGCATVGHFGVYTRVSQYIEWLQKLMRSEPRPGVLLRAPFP
Assay: Clot assay / one-stage coagulation assay of stored rhFVIIa formulations
Assay type: biochemical
Settings: 1 mM compound in 1.0 mg/mL rhFVIIa formulation, pH 6.5, stored at 5° C. and 25° C.
Source text: The biological activity of Factor VII (as Factor VIIa) in blood clotting derives from its ability to (i) bind to tissue factor (TF) and (ii) catalyze the proteolytic cleavage of Factor IX or Factor X to produce activated Factor IX or X (Factor IXa or Xa, respectively). Human Factor VIIa biological activity may be quantified by an assay measuring the ability of a preparation to promote blood clotting using Factor VII-deficient plasma and thromboplastin, as described, e.g., in U.S. Pat. No. 5,997,864. In this assay, biological activity is expressed as the reduction in clotting time relative to a control sample and is converted to “Factor VII units” by comparison with a pooled human […] standard containing 1 unit/ml Factor VII activity. […] Coagulation times (clotting times) are measured and compared to a standard curve using a reference standard in a parallel line assay. Alternatively, Factor VIIa biological activity may be quantified by (i) measuring the ability of Factor VIIa to produce Factor Xa in a system comprising TF embedded in a lipid membrane and Factor X. (Persson et al., J. Biol. Chem. 272:19919-19924, 1997); (ii) measuring Factor X hydrolysis in an aqueous system; (iii) measuring its physical binding to TF using an instrument based on surface plasmon resonance (Persson, FEBS Letts. 413:359-363, 1997) and (iv) measuring hydrolysis of a synthetic substrate. […]

stabilizing effect with respect to retention of activity of FVIIa: marked stabilizing effect
Structure (SMILES): COc1cccc([C@H](C)NC(=O)COC(=O)Nc2ccc(C(=N)N)cc2)c1 [Example 1, (S)-(4-carbamimidoylphenyl)carbamic acid [1-(3-methoxyphenyl)ethylcarbamoyl]methyl ester]

From patent publication US20090130085A1, “Amidino-Compounds for Stabilizing Factor VII Polypeptide Formulations” (NOVO NORDISH HEALTHCARE AG, priority 2005, published 2009)
